# Measurements from ChEMBL document CHEMBL1201862, “PubChem BioAssay data set” (2004).
# Active and inactive are the calls of the source.
# Tests used:
# Genome polyprotein = Genome polyprotein (dengue virus type 2, UniProt P29990); test: flavivirus cap methylation enzyme inhibition – biochemical, confirmation dose response, primary screen (AID 588689); type: functional
# [1] = target: T1, Calpain-2 catalytic subunit (Sus scrofa, UniProt P43367); test: m-calpain protease blockers, concentration series – biochemical, fluorogenic peptide substrate, dose response (AID 1420); type: functional
# T1 sequence (P43367 whole entry): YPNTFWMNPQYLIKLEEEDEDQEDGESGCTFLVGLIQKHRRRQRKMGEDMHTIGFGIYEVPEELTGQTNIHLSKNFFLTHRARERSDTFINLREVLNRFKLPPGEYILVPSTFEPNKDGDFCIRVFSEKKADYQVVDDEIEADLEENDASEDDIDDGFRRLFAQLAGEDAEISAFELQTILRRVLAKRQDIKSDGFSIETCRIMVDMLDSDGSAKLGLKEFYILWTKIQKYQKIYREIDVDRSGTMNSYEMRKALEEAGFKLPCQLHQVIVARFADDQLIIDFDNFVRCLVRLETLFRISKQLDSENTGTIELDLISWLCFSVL
# [2] = target: T2, Mannose-6-phosphate isomerase (Homo sapiens, UniProt P34949); test: MPI inhibition at elevated mannose 6-phosphate – biochemical, fluorescence intensity, high mannose 6-phosphate, primary screen (AID 1220)
# T2 sequence (P34949 whole entry): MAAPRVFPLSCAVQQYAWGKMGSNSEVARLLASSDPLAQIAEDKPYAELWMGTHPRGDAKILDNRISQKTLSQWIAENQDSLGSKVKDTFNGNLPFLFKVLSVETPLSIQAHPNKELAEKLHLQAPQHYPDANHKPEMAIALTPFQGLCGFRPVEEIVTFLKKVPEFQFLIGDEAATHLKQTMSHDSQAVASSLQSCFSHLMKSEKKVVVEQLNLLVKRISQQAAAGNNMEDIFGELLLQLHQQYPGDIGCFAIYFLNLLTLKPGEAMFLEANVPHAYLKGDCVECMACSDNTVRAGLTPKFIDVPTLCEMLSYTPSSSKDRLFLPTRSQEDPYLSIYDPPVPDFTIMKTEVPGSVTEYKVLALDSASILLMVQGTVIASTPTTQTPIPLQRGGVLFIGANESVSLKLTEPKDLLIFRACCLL
# [3] = target: T3, RNA-binding protein pos-1 (Caenorhabditis elegans, UniProt G5EF15); test: disruptors of C. elegans POS-1 RNA interaction – biochemical, fluorescence polarization, dose response (AID 1964);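 also: purified POS-1 fused to maltose binding protein made in E. coli; potency of compounds blocking POS-1 binding to fluorescent RNA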
# T3 sequence (G5EF15 whole entry): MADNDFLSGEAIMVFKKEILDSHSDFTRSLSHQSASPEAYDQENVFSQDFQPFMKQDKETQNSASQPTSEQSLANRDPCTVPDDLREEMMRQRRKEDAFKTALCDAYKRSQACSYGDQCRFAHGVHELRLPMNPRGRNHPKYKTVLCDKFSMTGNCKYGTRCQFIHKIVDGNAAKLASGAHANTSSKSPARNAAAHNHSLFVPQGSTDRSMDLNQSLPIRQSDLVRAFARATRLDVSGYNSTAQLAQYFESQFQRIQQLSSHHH
# [4] = target: RNA-editing ligase 1, mitochondrial (Trypanosoma brucei brucei, UniProt P86926); test: inhibition of trypanosome RNA editing ligase – biochemical, fluorescence, Trypanosoma brucei, dose response (AID 1117295); type: functional
# Sequence of RNA-editing ligase 1, mitochondrial (P86926 whole entry): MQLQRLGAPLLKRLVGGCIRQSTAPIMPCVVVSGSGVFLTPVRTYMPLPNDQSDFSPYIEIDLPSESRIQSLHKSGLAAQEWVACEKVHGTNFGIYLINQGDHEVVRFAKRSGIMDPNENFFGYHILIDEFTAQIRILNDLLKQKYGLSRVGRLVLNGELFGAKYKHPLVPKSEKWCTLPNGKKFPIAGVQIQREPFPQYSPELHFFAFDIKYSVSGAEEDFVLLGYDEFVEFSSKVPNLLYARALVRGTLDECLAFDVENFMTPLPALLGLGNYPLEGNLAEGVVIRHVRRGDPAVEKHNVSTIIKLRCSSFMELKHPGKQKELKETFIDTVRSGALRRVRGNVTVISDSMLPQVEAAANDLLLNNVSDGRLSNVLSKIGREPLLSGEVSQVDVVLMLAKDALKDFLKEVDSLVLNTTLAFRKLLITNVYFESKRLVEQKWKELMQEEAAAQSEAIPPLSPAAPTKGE
# [5] = target: T4, Zinc finger protein mex-5 (Caenorhabditis elegans, UniProt Q9XUB2); test: potency of MEX-5 RNA-binding blockers – biochemical, C. elegans, fluorescence polarization, dose response (AID 1960)
# T4 sequence (Q9XUB2 whole entry): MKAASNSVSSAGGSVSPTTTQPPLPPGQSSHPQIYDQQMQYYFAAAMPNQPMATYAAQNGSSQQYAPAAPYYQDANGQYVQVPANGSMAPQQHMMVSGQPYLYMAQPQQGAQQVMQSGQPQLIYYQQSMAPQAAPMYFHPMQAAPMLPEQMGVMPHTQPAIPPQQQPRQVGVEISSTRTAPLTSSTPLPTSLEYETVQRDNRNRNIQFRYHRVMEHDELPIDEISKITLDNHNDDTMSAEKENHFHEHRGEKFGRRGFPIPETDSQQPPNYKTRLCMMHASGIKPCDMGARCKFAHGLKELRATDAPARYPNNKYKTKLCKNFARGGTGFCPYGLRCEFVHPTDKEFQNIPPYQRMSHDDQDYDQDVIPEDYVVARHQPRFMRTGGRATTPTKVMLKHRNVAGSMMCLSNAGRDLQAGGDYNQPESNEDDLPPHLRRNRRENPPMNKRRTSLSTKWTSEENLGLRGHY
# [6] = target: T5, Histone-lysine N-methyltransferase NSD2 (Homo sapiens, UniProt O96028); type: biochemical
# T5 sequence (O96028 whole entry): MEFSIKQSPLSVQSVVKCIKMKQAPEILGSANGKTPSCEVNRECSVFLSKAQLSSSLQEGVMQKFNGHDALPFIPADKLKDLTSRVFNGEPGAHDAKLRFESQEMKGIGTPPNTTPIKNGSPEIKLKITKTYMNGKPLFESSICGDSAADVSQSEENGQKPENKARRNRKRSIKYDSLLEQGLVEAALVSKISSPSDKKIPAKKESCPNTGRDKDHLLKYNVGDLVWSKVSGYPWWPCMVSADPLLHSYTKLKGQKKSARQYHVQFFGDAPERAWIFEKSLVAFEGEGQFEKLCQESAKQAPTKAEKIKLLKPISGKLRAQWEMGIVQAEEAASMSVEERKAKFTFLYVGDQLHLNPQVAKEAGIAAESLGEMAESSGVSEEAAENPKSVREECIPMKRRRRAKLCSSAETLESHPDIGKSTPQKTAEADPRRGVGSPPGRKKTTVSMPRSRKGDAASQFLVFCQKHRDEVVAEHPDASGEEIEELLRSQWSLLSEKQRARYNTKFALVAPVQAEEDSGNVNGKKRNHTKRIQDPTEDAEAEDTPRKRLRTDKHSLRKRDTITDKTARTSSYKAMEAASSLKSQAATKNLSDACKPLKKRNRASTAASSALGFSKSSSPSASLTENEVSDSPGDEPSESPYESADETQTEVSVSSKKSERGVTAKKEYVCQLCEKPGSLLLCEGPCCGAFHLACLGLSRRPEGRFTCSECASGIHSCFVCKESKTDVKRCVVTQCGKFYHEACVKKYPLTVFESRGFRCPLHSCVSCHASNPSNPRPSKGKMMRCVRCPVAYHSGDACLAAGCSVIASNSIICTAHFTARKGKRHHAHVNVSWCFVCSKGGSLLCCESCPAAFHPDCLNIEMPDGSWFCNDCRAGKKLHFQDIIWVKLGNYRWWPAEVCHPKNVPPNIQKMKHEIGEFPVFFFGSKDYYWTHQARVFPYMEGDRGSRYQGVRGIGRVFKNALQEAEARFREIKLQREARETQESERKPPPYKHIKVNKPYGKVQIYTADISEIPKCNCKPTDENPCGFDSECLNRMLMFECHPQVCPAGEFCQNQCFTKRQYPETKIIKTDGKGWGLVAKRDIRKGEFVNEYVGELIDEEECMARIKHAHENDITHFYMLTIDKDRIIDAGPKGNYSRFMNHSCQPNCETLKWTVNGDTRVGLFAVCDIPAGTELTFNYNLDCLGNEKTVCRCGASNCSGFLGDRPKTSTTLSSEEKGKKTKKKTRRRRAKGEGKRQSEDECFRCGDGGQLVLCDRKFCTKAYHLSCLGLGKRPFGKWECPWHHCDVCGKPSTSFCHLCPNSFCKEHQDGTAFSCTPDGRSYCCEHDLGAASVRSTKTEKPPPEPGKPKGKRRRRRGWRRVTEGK
# [7] = ATP-based viability loss in HEK293T cells – cell-based, CellTiter-Glo luminescence, cherry-picked samples, set 4, cytotoxicity control, dose response (AID 743441); type: functional; conditions: HEK293
# [8] = A549 lung cell viability reduction – CellTiter-Glo luminescence, cherry-pick, cytotoxicity control, dose response (AID 743484); type: functional, cell-based
# [9] = HepG2 viability loss by ATP level – cell-based, CellTiter-Glo luminescence, cherry-pick, set 4, cytotoxicity control, dose response (AID 743480); type: functional
# [10] = IC50 of Artemis nuclease activity blockers – biochemical, fluorescence intensity, dose response (AID 720701); type: functional;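 also: Artemis endonuclease enzyme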
# [11] = viability loss in human Jurkat cells – cell-based, luminescence, cytotoxicity control for P. falciparum gametocyte viability project, dose response (AID 1117277); type: functional;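 also: potency reflects loss of cellular ATP meaning fewer viable cells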
# [12] = viability inhibitors of stage V gametocytes – luminescence, dose response (AID 1117278); type: functional, cell-based;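 also: gametocytes exposed to compound for 24 hours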
# [13] = target: Glutathione-S-transferase (Schistosoma japonicum, UniProt Q26513); test: GST-antibody interaction or FRET quenching – biochemical, TR-FRET, artefact control for Vif-APOBEC3G degradation inhibitor project, dose response (AID 1117362); type: functional
# Sequence of Glutathione-S-transferase (Q26513 whole entry): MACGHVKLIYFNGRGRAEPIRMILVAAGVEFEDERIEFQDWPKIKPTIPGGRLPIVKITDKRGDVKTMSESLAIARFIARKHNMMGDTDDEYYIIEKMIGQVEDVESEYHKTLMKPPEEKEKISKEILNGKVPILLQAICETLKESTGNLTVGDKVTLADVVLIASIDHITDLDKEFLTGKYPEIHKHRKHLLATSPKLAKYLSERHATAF
# Large T antigen = Large T antigen (Simian virus 40, UniProt P03070); type: functional, Betapolyomavirus macacae;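 also: Confirmatory-stage PubChem screen for compounds that inhibit SV40 T antigen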
# Sequence of Large T antigen (P03070 whole entry): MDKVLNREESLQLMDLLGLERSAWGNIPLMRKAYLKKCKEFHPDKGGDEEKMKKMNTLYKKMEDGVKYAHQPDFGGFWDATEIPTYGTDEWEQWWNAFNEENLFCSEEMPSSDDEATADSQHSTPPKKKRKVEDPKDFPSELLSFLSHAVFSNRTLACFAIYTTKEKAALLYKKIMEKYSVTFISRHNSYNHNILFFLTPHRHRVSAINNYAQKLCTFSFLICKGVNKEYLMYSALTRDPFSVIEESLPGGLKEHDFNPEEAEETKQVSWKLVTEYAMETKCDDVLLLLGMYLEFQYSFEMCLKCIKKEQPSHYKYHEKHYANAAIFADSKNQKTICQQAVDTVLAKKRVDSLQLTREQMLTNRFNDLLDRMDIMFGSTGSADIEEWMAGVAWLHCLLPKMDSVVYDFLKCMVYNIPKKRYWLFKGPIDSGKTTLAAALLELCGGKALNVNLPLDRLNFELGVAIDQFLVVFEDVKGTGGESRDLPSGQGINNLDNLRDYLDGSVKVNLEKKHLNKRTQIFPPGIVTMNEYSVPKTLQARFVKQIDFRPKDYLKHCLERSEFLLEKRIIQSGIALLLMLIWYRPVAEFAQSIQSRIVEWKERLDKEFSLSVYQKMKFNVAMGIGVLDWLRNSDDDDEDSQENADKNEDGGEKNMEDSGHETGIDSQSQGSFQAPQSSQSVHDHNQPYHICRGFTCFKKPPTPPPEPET
# [14] = glucagon-like peptide-1 release potency in STC-1, concentration-response, half-maximal inhibitory concentration in the STC-1 line (AID 1117345); type: functional, cell-based
# [15] = Potency on glucagon-like peptide 1 release, dose-response in NCI-H716 cell line, half maximal inhibitory concentration (AID 1117344); type: functional, cell-based
# [16] = PAX8-dependent cell viability loss – plate reader, dry powder, dose response (AID 743049); type: functional, cell-based
# [17] = inhibitors acting on PAX2 in cells – cell-based, plate reader, dry powder samples, selectivity assay for PAX8 inhibitor project, dose response (AID 743048); type: functional;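 also: HEK293 cells carrying a WT1 promoter luciferase reporter driven by expressed Pax2; potency is for inhibition of Pax2 driven reporter signal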
# [18] = COV434 cell viability loss – plate reader, dry powder, SA7, cytotoxicity control for PAX8 inhibitor project, dose response (AID 743145); type: functional, cell-based
# [19] = PAX5 cellular inhibition readout – cell-based, plate reader, dry powder samples, selectivity assay for PAX8 inhibitor project, dose response (AID 743047); type: functional;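 also: HEK293 cells carrying a Pax5 driven CD19 promoter luciferase reporter; potency of inhibitors that lower reporter luminescence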
# Transthyretin = Transthyretin (Homo sapiens, UniProt P02766); test: Luminescence-based cell-based high throughput dose response assay to identify activators of Transthyretin (TTR) transcription.; type: functional
# [20] = target: Metabotropic glutamate receptor 7 (Homo sapiens, UniProt Q14831); test: potentiation of glutamate EC20 at mGlu7 – cell-based, calcium mobilization, Galpha15, dose response (AID 743384); type: functional
# [21] = P. falciparum Dd2 growth inhibitors, dose response, SYBR Green, cherry-picked samples (AID 1159567); type: functional, cell-based
# [22] = growth inhibition of yeast DHODH-expressing 3D7 parasites – SYBR Green, dry powder samples, dose response (AID 1159570); type: functional, cell-based;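 also: parasite growth measured after 72 hours of compound exposure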
# [23] = Dd2 malaria parasite growth inhibition potency – SYBR Green, dry powder samples, dose response (AID 1159566); type: functional, cell-based;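 also: potency for growth inhibition with lower SYBR green DNA signal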
# [24] = growth inhibition of PfATP4-mutant resistant parasites – NITD609-resistant line, SYBR Green, dry powder, dose response (AID 1159571); type: functional, cell-based;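 also: parasites synchronized at ring stage by sorbitol before testing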
# Phospholipase D2 [25] = target: T6, Phospholipase D2 (Homo sapiens, UniProt O14939); test: Discovery of PLD2 inhibitors using the Purified Enzyme Concentration Response Assay.; type: functional
# T6 sequence (O14939 whole entry): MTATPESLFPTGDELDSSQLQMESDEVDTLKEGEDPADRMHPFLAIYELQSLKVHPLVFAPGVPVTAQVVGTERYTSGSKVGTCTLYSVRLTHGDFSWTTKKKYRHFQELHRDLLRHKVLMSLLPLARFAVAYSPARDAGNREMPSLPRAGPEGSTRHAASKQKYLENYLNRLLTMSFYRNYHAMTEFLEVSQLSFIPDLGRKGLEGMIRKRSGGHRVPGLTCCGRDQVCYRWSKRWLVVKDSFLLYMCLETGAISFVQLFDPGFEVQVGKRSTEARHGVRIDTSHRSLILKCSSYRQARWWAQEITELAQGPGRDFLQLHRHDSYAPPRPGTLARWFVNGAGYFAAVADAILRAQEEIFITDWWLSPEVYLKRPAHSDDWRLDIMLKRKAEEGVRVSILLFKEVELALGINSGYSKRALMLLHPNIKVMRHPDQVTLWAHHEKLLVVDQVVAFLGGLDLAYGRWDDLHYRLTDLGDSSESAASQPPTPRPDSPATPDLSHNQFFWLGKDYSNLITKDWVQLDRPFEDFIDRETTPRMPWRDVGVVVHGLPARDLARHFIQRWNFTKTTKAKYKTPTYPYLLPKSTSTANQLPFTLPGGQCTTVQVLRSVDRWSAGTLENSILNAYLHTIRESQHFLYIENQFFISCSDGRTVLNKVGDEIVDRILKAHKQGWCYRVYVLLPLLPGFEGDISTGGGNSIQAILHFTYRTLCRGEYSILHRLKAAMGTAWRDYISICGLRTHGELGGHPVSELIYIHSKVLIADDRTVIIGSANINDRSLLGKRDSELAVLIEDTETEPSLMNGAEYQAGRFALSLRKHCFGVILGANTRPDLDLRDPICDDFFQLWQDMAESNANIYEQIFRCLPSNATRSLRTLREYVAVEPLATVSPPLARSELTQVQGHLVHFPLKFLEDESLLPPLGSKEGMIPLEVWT
# Phospholipase D2 [26] = target: T6, Phospholipase D2; test: PLD2 Cellular Concentration Response Study.; type: functional
# Phospholipase D1 = Phospholipase D1 (Homo sapiens, UniProt Q13393); test: PLD1 Cellular Concentration Response Study.; type: functional
# [27] = target: E3 ubiquitin-protein ligase UHRF1 (Homo sapiens, UniProt Q96T88); test: Counterscreen for inhibitors of 5-meCpG-binding domain protein 2 (MBD2): TRFRET-based biochemical high throughput dose response assay to identify inhibitors of binding of ubiquitin-like with PHD and ring finger domains 1 (UHRF1) to methylated oligonucleotide.
# Sequence of E3 ubiquitin-protein ligase UHRF1 (Q96T88 whole entry, the tested form may be a part): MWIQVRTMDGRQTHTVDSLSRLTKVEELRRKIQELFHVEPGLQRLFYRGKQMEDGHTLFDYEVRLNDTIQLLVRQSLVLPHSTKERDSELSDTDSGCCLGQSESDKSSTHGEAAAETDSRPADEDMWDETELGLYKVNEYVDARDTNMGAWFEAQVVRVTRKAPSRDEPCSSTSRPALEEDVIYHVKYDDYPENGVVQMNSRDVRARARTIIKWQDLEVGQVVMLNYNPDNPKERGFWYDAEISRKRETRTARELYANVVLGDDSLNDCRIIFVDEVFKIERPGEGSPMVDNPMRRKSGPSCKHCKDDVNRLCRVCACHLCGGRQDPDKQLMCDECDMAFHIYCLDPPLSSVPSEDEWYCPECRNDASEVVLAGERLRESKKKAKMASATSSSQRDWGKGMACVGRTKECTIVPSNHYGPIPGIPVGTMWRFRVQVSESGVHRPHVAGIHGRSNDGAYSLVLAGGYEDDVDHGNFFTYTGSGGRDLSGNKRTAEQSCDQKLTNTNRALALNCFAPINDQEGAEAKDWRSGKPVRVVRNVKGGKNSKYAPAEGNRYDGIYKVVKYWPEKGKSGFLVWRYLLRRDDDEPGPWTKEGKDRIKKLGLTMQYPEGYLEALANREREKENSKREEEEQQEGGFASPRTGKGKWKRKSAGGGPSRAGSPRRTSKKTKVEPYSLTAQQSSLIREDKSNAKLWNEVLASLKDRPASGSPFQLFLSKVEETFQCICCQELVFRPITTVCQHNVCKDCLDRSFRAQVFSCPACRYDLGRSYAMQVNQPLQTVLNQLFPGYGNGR
# [28] = NIH3T3 cell viability loss – ATP luminescence, mouse fibroblasts, counter-screen, dose response (AID 2010); type: functional, cell-based;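 also: cells exposed to compound for about 90 hours before reading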
# [29] = Trypanosoma cruzi growth suppression in host cells – NIH3T3 host cells, beta-gal luminescence, confirmation (AID 2044); type: functional, cell-based;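 also: intracellular parasites grown in NIH/3T3 mouse fibroblasts as host cells; luminescent beta-galactosidase reporter signal from transgenic T. cruzi replicating inside host cells; inhibitors lower the luminescence signal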
# [30] = target: DNA repair and recombination protein RAD54-like (Homo sapiens, UniProt Q92698); test: RAD54 Holliday junction migration blockers – biochemical, fluorescence, cherry-picked samples, dose series, confirmation (AID 651657); type: functional
# Sequence of DNA repair and recombination protein RAD54-like (Q92698 whole entry): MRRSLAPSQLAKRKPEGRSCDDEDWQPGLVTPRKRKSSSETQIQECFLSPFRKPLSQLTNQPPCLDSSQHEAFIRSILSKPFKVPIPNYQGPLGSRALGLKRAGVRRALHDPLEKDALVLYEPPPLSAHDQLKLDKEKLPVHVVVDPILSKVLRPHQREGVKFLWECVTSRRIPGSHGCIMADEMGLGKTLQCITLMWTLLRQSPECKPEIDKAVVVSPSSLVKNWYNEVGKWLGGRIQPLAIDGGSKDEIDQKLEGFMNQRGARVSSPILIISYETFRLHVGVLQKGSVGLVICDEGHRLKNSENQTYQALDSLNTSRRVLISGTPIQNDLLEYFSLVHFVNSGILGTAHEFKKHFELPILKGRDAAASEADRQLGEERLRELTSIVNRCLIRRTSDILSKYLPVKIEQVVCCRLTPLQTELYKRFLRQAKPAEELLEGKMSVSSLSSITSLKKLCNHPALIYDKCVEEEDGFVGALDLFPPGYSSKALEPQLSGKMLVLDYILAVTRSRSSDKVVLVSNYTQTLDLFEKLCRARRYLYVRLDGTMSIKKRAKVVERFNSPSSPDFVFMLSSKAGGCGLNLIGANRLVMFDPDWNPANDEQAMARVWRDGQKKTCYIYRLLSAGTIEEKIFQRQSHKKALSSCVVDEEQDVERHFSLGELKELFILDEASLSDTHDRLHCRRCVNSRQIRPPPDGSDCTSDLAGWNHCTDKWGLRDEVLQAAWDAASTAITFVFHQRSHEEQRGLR
# Sequence of Genome polyprotein (P29990 2492-3391 limits assumed): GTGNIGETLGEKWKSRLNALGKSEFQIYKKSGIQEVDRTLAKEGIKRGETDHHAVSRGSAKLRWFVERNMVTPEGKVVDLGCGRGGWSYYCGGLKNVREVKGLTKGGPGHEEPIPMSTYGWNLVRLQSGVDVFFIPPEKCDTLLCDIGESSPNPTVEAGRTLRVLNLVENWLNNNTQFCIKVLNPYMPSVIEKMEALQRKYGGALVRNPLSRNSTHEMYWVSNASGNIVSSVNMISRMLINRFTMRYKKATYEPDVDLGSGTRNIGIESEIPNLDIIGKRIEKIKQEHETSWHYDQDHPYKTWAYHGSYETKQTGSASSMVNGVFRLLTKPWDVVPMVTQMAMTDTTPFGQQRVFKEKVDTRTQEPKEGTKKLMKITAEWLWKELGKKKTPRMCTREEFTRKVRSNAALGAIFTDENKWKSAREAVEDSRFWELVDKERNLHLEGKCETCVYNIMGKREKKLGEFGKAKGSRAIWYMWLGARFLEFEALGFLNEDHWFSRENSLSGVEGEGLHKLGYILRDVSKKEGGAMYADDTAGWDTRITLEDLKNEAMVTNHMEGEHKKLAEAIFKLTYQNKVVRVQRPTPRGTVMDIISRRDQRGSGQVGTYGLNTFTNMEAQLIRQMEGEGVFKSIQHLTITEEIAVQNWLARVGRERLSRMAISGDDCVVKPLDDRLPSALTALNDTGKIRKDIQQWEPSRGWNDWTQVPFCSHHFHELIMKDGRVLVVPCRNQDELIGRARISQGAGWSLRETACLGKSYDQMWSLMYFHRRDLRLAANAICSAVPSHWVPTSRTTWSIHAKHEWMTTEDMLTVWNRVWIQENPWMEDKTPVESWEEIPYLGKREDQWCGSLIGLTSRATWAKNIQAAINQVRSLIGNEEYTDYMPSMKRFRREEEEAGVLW
structure (smiles),measurement,setting,value
CCOC(=O)c1ccc(CC(=O)c2ccc(O)c(O)c2O)o1,IC50,Genome polyprotein,33.6 µM (active)
same,IC50,[1],> 50 µM (not active)
same,IC50,[2],19.4 µM (active)
same,EC50,[3],35.5 µM (active)
same,IC50,[4],> 96.6 µM (inactive)
same,EC50,[5],0.868 µM (active)
same,AC50,[6],17.3 µM (active)
O=C(COC(=O)c1cccc(O)c1)Nc1ccc(Cl)cc1C(=O)c1ccccc1,IC50,[1],17.9 µM (not active)
same,AC50,[7],> 52 µM (inactive)
same,AC50,[8],32.3 µM (active)
same,AC50,[9],> 52 µM (inactive)
O=C(Nc1nc2n(n1)C(c1ccccc1)CC(c1ccc(Cl)cc1)N2)c1ccco1 (stereo unspecified),IC50,[10],18.7 µM (active)
CSc1nccc(-c2cc(Cl)sc2Cl)n1,IC50,[11],> 83.3 µM (inactive)
same,IC50,[12],> 109 µM (inactive)
CN(C(=S)Nc1cccnc1)c1ccc(O)cc1,IC50,[2],> 50 µM (not active)
same,IC50,[13],> 100 µM (active)
same,IC50,Large T antigen,58.4 µM (active)
CC(C)(C)CC(C)(C)c1ccc(O)cc1,IC50,[14],8.37 µM (inactive)
same,IC50,[15],25.9 µM (inactive)
N#C[C@H]1[C@@H](c2ccc(C3=CCCC3)cc2)[C@@H](CO)N1C(=O)NC1CCCCC1,AC50,[16],61.5 µM (active)
same,AC50,[17],52.1 µM (active)
same,AC50,[18],> 70 µM (inactive)
same,AC50,[19],> 70 µM (inactive)
C/C(=N\Nc1ncc(Br)cn1)c1cccc([N+](=O)[O-])c1,EC50,Transthyretin,> 167 µM (inactive)
COC(=O)c1ccc(-n2c(C)cc(C(=O)COc3ccc(NC(C)=O)cc3)c2C)cc1,EC50,[20],2.4 µM (active)
COc1cccc(C#Cc2cnc3c(c2)C(=O)N([C@@H](C)CO)C[C@H](C)[C@@H](CN(C)C(=O)C2CCCCC2)O3)c1,AC50,[21],0.889 µM (active)
same,AC50,[22],0.783 µM (active)
same,AC50,[23],0.635 µM (active)
same,AC50,[24],0.972 µM (active)
O=C(NCCN1CCC2(CC1)C(=O)NCN2Cc1cccnc1)c1cc2ccccc2o1,IC50,Phospholipase D2 [25],12.5 µM (active)
same,IC50,Phospholipase D2 [26],2.5 µM (active)
same,IC50,Phospholipase D1,20 µM (active)
Cc1ccc2nc(Cl)c3cc(C(=O)NCCCN4CCCC4)sc3c2c1,IC50,[27],> 43.8 µM (inactive)
same,EC50,[28],9.72 µM (active)
same,EC50,[29],1.65 µM (active)
same,AC50,[30],11.4 µM (active)
